In the oligonucleotide strings, read from the 5' end, every base follows the letter of its sugar. An asterisk marks phosphorothioate; unmarked linkages are phosphodiester. Other units and linkages are bracketed, terminal groups are in braces. A string of capitals states the bases alone. e = 2'-O-(2-methoxyethyl) (MOE); [5mC] = 5-methylcytosine
Columns and labels:
Assay type in all cases: cell-based, human
HSL = HSL mRNA expression in adipocytes (real-time PCR)
Protocol: (§1) Expression of the four hallmark genes, HSL, aP2, Glut4, and PPARγ, is also measured in adipocytes transfected with oligomeric compounds of the invention. Cells are lysed on day nine post-transfection and total RNA is harvested. The amount of total RNA in each sample is determined using a Ribogreen Assay (Invitrogen Life Technologies, Carlsbad, Calif.).
(§2) For assaying adipocyte differentiation, expression of the four hallmark genes, HSL, aP2, Glut4, and PPARγ, as well as triglyceride (TG) accumulation and leptin secretion were measured in adipocytes transfected with the uniform 2′-MOE phosphorothioate (PS) oligomeric compounds previously described. Cells are lysed on day nine post-transfection, in a guanadinium-containing buffer and total RNA is harvested. Real-time PCR is performed (Applied Biosystems, Prism 7700) on the total RNA using the following primer/probe sets for the adipocyte differentiation hallmark genes: (aP2): forward 5′-GGTGGTGGAATGCGTCATG-3′ (SEQ ID NO: 746), reverse 5′-[…]-3′ (SEQ ID NO: 747), probe 5′-FAM-[…]-TAMRA-3′ (SEQ ID NO: 748); (Glut4): forward 5′-GGCCTCCGCAGGTTCTG-3′ (SEQ ID NO: 749), reverse 5′-[…]-3′ (SEQ ID NO: 750), probe 5′-FAM-[…]-TAMRA-3′ (SEQ ID NO: 751); (HSL): forward 5′-ACCTGCGCACAATGACACA-3′ (SEQ ID NO: 752), reverse 5′-[…]-3′ (SEQ ID NO: 753), probe 5′-FAM-[…]-TAMRA-3′ (SEQ ID NO: 754); (PPAR-γ): forward 5′-[…]-3′ (SEQ ID NO: 755), reverse 5′-[…]-3′ (SEQ ID NO: 756), probe 5′-FAM-[…]-TAMRA-3′ (SEQ ID NO: 757). The amount of total RNA in each sample is determined using a Ribogreen Assay (Molecular Probes, Eugene, Oreg.), and expression levels of the adipocyte differentiation hallmark genes were normalized to total RNA.

aP2 = aP2 mRNA expression in adipocytes (real-time PCR); conditions: for AP2 mRNA: differentiating adipocytes, control = treatment with ISIS 342673; for aP2 mRNA: differentiating adipocytes transfected with oligomeric compound, Table 75
Protocol: as §1, §2

Glut4 = Glut4 mRNA expression in adipocytes (real-time PCR)
Protocol: as §1, §2

PPARγ = PPARγ mRNA expression in adipocytes (real-time PCR)
Protocol: as §1, §2

adipocytes = assay: Triglyceride accumulation assay in adipocytes
Protocol: The triglyceride accumulation assay measures the synthesis of triglyceride by adipocytes. Triglyceride accumulation is measured using the Infinity™ Triglyceride reagent kit (Sigma-Aldrich, St. Louis, Mo.). On day nine post-transfection, cells are washed and lysed at room temperature, and the triglyceride assay reagent is added. Triglyceride accumulation is measured based on the amount of glycerol liberated from triglycerides by the enzyme lipoprotein lipase. Liberated glycerol is phosphorylated by glycerol kinase, and hydrogen peroxide is generated during the oxidation of glycerol-1-phosphate to dihydroxyacetone phosphate by glycerol phosphate oxidase. Horseradish peroxidase (HRP) uses H2O2 to oxidize 4-aminoantipyrine and 3,5 dichloro-2-hydroxybenzene sulfonate to produce a red-colored dye. Dye absorbance, which is proportional to the concentration of glycerol, is measured at 515 nm using an UV spectrophotometer. Glycerol concentration is calculated from a standard curve for each assay, and data are normalized to total cellular protein as determined by a Bradford assay (Bio-Rad Laboratories, Hercules, Calif.).
An increase in triglyceride content is another well-established marker for adipocyte differentiation. The triglyceride accumulation assay measures the synthesis of triglyceride by adipocytes. Triglyceride accumulation was measured using the Infinity™ Triglyceride reagent kit (Sigma-Aldrich, St. Louis, Mo.). Human white preadipocytes (Zen-Bio Inc., Research Triangle Park, N.C.) were grown in preadipocyte media (ZenBio Inc.). One day before transfection, 96-well plates were seeded with 3000 cells/well. Cells were transfected according to standard published procedures with 250 nM oligomeric compound in LIPOFECTIN™ (Invitrogen Corporation, Carlsbad, Calif.) (Monia et al., J. Biol. Chem. 1993 268(19):14514-22). Oligomeric compounds were tested in triplicate on each 96-well plate, and the effects of TNF-α, a positive drug control that inhibits adipocyte differentiation, were also measured in triplicate. Negative and transfectant-only controls may be measured up to six times per plate. After the cells have reached confluence (approximately three days), they were exposed to differentiation media (Zen-Bio, Inc.) containing a PPAR-γ agonist, IBMX, dexamethasone, and insulin for three days. Cells were then fed adipocyte media (Zen-Bio, Inc.), which was replaced at 2 to 3 day intervals. […] Triglyceride accumulation was measured based on the amount of glycerol liberated from triglycerides by the enzyme lipoprotein lipase. Liberated glycerol is phosphorylated by glycerol kinase, and hydrogen peroxide is generated during the oxidation of glycerol-1-phosphate to dihydroxyacetone phosphate by glycerol phosphate oxidase. Horseradish peroxidase (HRP) uses H2O2 to oxidize 4-aminoantipyrine and 3,5 dichloro-2-hydroxybenzene sulfonate to produce a red-colored dye. Dye absorbance, which is proportional to the concentration of glycerol, was measured at 515 nm using an UV spectrophotometer. Glycerol concentration was calculated from a standard curve for each assay, and data were normalized to total cellular protein as determined by a Bradford assay (Bio-Rad Laboratories, Hercules, Calif.). Results are expressed as a percent±standard deviation relative to transfectant-only control.

[1] = Table 17, differentiating adipocytes, control = treatment with ISIS 342673
[2] = Table 18, differentiating adipocytes, control = treatment with ISIS 342673
[3] = differentiating adipocytes transfected with oligomeric compound, Table 75

Substance	HSL mRNA (HSL; [1])	HSL mRNA (HSL; [2])	AP2 mRNA (aP2; Table 17)	AP2 mRNA (aP2; Table 18)	GLUT4 mRNA (Glut4; [1])	GLUT4 mRNA (Glut4; [2])	PPAR gamma mRNA (PPARγ; [1])	PPAR gamma mRNA (PPARγ; [2])	TG (triglyceride accumulation) (adipocytes; [1])	TG (triglyceride accumulation) (adipocytes; [2])	HSL mRNA (HSL; [3])	aP2 mRNA (aP2)	GLUT4 mRNA (Glut4; [3])	PPAR gamma mRNA (PPARγ; [3])	TG (triglyceride accumulation) (adipocytes; [3])
TNF-alpha	0.7 percentage of control	3.1 percentage of control	5.5 percentage of control	9.6 percentage of control	0.5 percentage of control	1.9 percentage of control	18.8 percentage of control	27.9 percentage of control	10.0 percentage of control	14.5 percentage of control	–	–	–	–	–
328128 (antisense eA*eG*eT*eA*eA*e[5mC]*eT*eT*e[5mC]*eT*eT*eG*e[5mC]*eA*eG*eT*eT*eG*eG*eA) [compound 328128]	94.1 percentage of control	–	100.7 percentage of control	–	101.9 percentage of control	–	84.0 percentage of control	–	98.7 percentage of control	–	72 percentage of untreated control (UTC)	90 percentage of untreated control (UTC)	73 percentage of untreated control (UTC)	86 percentage of untreated control (UTC)	61 percentage of untreated control (UTC)
348127 (GCAGAACUUAGCCACUGUGAA; all 2'-MOE, all phosphorothioate, methylation of C and T or U not given here) [compound 348127]	–	–	–	–	–	–	–	–	–	–	150 percentage of untreated control (UTC)	185 percentage of untreated control (UTC)	201 percentage of untreated control (UTC)	130 percentage of untreated control (UTC)	155 percentage of untreated control (UTC)
328130 (antisense eA*e[5mC]*e[5mC]*eT*e[5mC]*eA*eG*eG*eT*eG*eG*eT*eT*eG*eA*eA*eG*eG*eA*eG*eA) [compound 328130]	76.5 percentage of control	–	86.6 percentage of control	–	83.8 percentage of control	–	99.4 percentage of control	–	122.4 percentage of control	–	64 percentage of untreated control (UTC)	72 percentage of untreated control (UTC)	55 percentage of untreated control (UTC)	77 percentage of untreated control (UTC)	91 percentage of untreated control (UTC)
328126 (antisense e[5mC]*e[5mC]*eA*eA*eG*eT*eG*eT*eT*eA*eG*eA*eG*e[5mC]*eA*eA*eG*eA*eT*e[5mC]*eA) [compound 328126]	83.2 percentage of control	–	90.9 percentage of control	–	100.7 percentage of control	–	75.0 percentage of control	–	98.9 percentage of control	–	135 percentage of untreated control (UTC)	120 percentage of untreated control (UTC)	107 percentage of untreated control (UTC)	98 percentage of untreated control (UTC)	108 percentage of untreated control (UTC)
346906 (ACAGGAUUGAGGGGGGGCCCU; all 2'-MOE, all phosphorothioate, methylation of C and T or U not given here) [compound 346906]	–	–	–	–	–	–	–	–	–	–	70 percentage of untreated control (UTC)	77 percentage of untreated control (UTC)	70 percentage of untreated control (UTC)	80 percentage of untreated control (UTC)	83 percentage of untreated control (UTC)
346695 (CACUGGUACAAGGGUUGGGAGA; all 2'-MOE, all phosphorothioate, methylation of C and T or U not given here) [compound 346695]	–	–	–	–	–	–	–	–	–	–	73 percentage of untreated control (UTC)	72 percentage of untreated control (UTC)	58 percentage of untreated control (UTC)	78 percentage of untreated control (UTC)	69 percentage of untreated control (UTC)
346688 (UAGUUGGCAAGUCUAGAACCA; all 2'-MOE, all phosphorothioate, methylation of C and T or U not given here) [compound 346688]	–	–	–	–	–	–	–	–	–	–	39 percentage of untreated control (UTC)	48 percentage of untreated control (UTC)	12 percentage of untreated control (UTC)	55 percentage of untreated control (UTC)	33 percentage of untreated control (UTC)
341795 (antisense AACCAAUGUGCAGACUACUGUA; all 2'-MOE, all phosphorothioate, methylation of C and T or U not given here) [compound 341795]	–	–	–	–	–	–	–	–	–	–	74 percentage of untreated control (UTC)	76 percentage of untreated control (UTC)	55 percentage of untreated control (UTC)	74 percentage of untreated control (UTC)	57 percentage of untreated control (UTC)
346687 (AGCAAGCCCAGACCGCAAAAAG; all 2'-MOE, all phosphorothioate, methylation of C not given here) [compound 346687]	–	–	–	–	–	–	–	–	–	–	53 percentage of untreated control (UTC)	56 percentage of untreated control (UTC)	35 percentage of untreated control (UTC)	60 percentage of untreated control (UTC)	55 percentage of untreated control (UTC)
344340 (UGUCCGUGGUUCUACCCUGUGGUA; all 2'-MOE, all phosphorothioate, methylation of C and T or U not given here) [compound 344340]	–	–	–	–	–	–	–	–	–	–	47 percentage of untreated control (UTC)	82 percentage of untreated control (UTC)	16 percentage of untreated control (UTC)	67 percentage of untreated control (UTC)	60 percentage of untreated control (UTC)

Source: patent US8178506B2, “Oligomeric compounds and compositions for use in modulation of small non-coding RNAs” (Regulus Therapeutics Inc., priority 2003, dated 2012)
